The structures appear in SMILES notation. Counter-ions that a name gives are not always drawn. A value given as a limit tells only on which side of the number the result lay.

This assay deals with T1, human TRPC6 (Homo sapiens, UniProt Q9Y210).
T1 construct: expressed in transfected cells
T1 sequence (Q9Y210 1-931): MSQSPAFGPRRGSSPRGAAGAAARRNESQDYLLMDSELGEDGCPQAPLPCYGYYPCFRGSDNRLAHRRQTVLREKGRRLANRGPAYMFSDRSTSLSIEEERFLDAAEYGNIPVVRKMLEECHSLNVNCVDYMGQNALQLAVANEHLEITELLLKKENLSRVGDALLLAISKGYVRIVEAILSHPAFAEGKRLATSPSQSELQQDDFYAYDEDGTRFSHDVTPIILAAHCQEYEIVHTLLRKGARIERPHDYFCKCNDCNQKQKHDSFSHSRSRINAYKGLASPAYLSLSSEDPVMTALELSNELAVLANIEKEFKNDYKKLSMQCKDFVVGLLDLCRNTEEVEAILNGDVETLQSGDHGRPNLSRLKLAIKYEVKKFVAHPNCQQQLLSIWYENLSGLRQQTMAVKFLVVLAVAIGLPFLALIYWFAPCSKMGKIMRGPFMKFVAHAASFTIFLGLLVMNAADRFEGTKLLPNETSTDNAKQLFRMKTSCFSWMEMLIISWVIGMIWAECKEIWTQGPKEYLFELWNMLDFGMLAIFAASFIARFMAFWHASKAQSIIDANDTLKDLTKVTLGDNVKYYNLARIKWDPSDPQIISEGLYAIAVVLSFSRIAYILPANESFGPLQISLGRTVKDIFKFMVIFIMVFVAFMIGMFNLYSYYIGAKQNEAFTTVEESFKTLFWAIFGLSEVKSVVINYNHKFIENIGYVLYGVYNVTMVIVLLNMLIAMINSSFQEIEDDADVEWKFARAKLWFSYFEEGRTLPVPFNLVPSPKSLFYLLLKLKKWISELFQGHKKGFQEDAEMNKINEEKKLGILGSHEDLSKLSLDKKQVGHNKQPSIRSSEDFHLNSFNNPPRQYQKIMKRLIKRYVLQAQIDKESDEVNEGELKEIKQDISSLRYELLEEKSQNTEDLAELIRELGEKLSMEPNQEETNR
The experiment in a line: TRPC6 calcium flux assay (FLIPR, OAG-stimulated calcium influx). The settings on record: HEK293 cells stably transfected with human TRPC6, read-out: hTRPC6 Potency. Format: cell-based. As to the method:
Biological Example 1 TRPC6 Calcium Flux Assay
Potency of TRPC6 (Transient receptor potential channel family C6) inhibitors were measured by their inhibition of Calcium influx trigged by […] (1-Oleoyl-2-acetyl-sn-glycerol, Millipore Sigma, O6754) stimulation on HEK293 cells stablely transfected with human TRPC6 using a FLIPR tetra system. Cells were grown in a humidified environment at 37° C. under 5% CO2 using the growth medium with the following selective reagents (Dulbecco's Modified Eagle's Medium (DMEM) high glucose, 10% Fetal Bovine Serum, 1×PSGlu (penicillin-streptomycin glutamine), 1×NEAA (Non-essential amino acid), 1× Na Pyruvate and 200 ug/ml Hygromycin). For general passage, cells were grown to 70-90% confluency; the media was removed, and the cells were gently washed 2 times with calcium and magnesium free PBS (phosphate-buffered saline). Trypsin (3 mL) was applied for 5 minutes at 37° C. The cells were dislodged by rapping flask against base of a hand and 7 mL of growth medium was added to deactivate trypsin and re-suspend cells. The usual splitting schedule was 1:5 every 2-3 days.
Cells were plated the day before the assay, plating cell density is 1.0-1.5×10^4/25 μl/well in poly-D-lysine (PDL) coated 384-well plates using either multichannel pipettes or multidrop. These cells were first incubated with fluorescence dye at room temperature for 90-120 minutes after they were grown on PDL-coated 384-well black plates overnight (Dye loading buffer 10 ml example: 9 mL assay buffer, 1 mL, 10×PBX signal enhancer, 10 μL Calcium indicator). The cells were incubated with a dose of compounds for 25 minutes before being stimulated with TRPC6 agonist OAG. The OAG solution was prepared by adding OAG into assay buffer (Ca ringer solution base: 10 mM HEPES (4-(2-hydroxyethyl)-1-piperazine-ethanesulfonic acid), 4 mM MgCl2, 120 mM NaCl, 5 mM KCl, pH=7.2 @25° C.)+0.1% BSA+2 mM CaCl2) to the concentration of 0.2 mM/2% DMSO, which achieves a final on cell concentration of 50 uM/0.5% DMSO. 12.5 uL OAG mixture was added and the activation of the TRPC6 channel was measured by the change of intracellular Calcium levels on FLIPR terra system.
Data was acquired by measuring the fluorescent peak signal subtracted from the background during the 180 second imaging frame. Each data point is further normalized to 100% of OAG triggered signal vs. buffer. Table 16 provides the IC50 for each compound, which data is obtained by plotting peak signal over the compound dose.
For `N#Cc1ccc(Cn2c(N3C[C@@H]4OCCN[C@@H]4C3)nc3ccccc32)nc1` [Example 98, 6-((2-((4aR,7aS)-hexahydropyrrolo[3,4-b][1,4]oxazin-6(2H)-yl)-1H-benzo[d]imidazol-1-yl)methyl)nicotinonitrile hydrochloride], the IC50 was more than 3750 nM.

As to `N#Cc1ccc(Cn2c(N3CCC4(CCCC4N)C3)nc3ccccc32)cc1` (stereo not shown) [Example 168, 4-((2-(6-amino-2-azaspiro[4.4]nonan-2-yl)-1H-benzo[d]imidazol-1-yl)methyl)benzonitrile], the IC50 is 1600 nM. On to `CN(C(=O)Cn1c(N2CC[C@@H](F)[C@H](N)C2)nc2ccc(F)cc21)[C@H]1CCOC1` [Example 664, 2-(2-((3R,4R)-3-amino-4-fluoropiperidin-1-yl)-6-fluoro-1H-benzo[d]imidazol-1-yl)-N-methyl-N-((S)-tetrahydrofuran-3-yl)acetamide], for which the IC50 came to 555 nM. `N[C@@H]1CN(c2nc3ccccc3n2CC(=O)N2CCC2)CC[C@H]1F` [Example 520, 2-(2-((3R,4R)-3-amino-4-fluoropiperidin-1-yl)-1H-benzo[d]imidazol-1-yl)-1-(azetidin-1-yl)ethan-1-one]: the IC50 was 686 nM. To `CN(CC(F)(F)F)C(=O)Cn1c(N2CC[C@H](F)[C@H](N)C2)nc2ccc(F)cc21` [Example 462, 2-(2-((3R,4S)-3-amino-4-fluoropiperidin-1-yl)-6-fluoro-1H-benzo[d]imidazol-1-yl)-N-methyl-N-(2,2,2-trifluoroethyl)acetamide] belongs 29.4 nM. On to `CC(=O)N1CCN(C(=O)Cn2c(N3CC[C@@H](F)[C@H](N)C3)nc3cc(F)c(F)cc32)CC1` [Example 540, 1-(4-acetylpiperazin-1-yl)-2-(2-((3R,4R)-3-amino-4-fluoropiperidin-1-yl)-5,6-difluoro-1H-benzo[d]imidazol-1-yl)ethan-1-one], for which the IC50 was more than 3750 nM. Turning to `N[C@@H]1CN(c2nc3cc(F)c(F)cc3n2CC(=O)N2CCC(O)CC2)CC[C@H]1F` [Example 640, 2-(2-((3R,4R)-3-amino-4-fluoropiperidin-1-yl)-5,6-difluoro-1H-benzo[d]imidazol-1-yl)-1-(4-hydroxypiperidin-1-yl)ethanone], the IC50 stood at 809 nM. To `N[C@@H]1CN(c2nc3cc(F)c(F)cc3n2CC(=O)N(CCO)C2CC2)CC[C@H]1F` [Example 617, 2-(2-((3R,4R)-3-amino-4-fluoropiperidin-1-yl)-5,6-difluoro-1H-benzo[d]imidazol-1-yl)-N-cyclopropyl-N-(2-hydroxyethyl)acetamide] belongs 33.2 nM; to `CN(C(=O)Cn1c(N2CC[C@@H](F)[C@H](N)C2)nc2cc(F)c(F)cc21)C1CCOC1` (stereo partly drawn) [Example 611, 2-(2-((3R,4R)-3-amino-4-fluoropiperidin-1-yl)-5,6-difluoro-1H-benzo[d]imidazol-1-yl)-N-methyl-N-(tetrahydrofuran-3-yl)acetamide], 22.4 nM. For `N[C@@H]1CN(c2nc3ccc(C(F)(F)F)cc3n2CC(=O)N2CCC2)CC[C@@H]1F` [Example 308, 2-(2-((3R,4S)-3-amino-4-fluoropiperidin-1-yl)-6-(trifluoromethyl)-1H-benzo[d]imidazol-1-yl)-1-(azetidin-1-yl)ethan-1-one] the value was more than 3750 nM; for `N#Cc1ccc(Cn2c(N3CCC[C@H](N)C3)nc3c(F)cc(F)cc32)nc1` [Example 61, (S)-6-((2-(3-aminopiperidin-1-yl)-4,6-difluoro-1H-benzo[d]imidazol-1-yl)methyl)nicotinonitrile], 2.7 nM. For `N[C@@H]1CN(c2nc3cc(F)c(F)cc3n2CC(=O)N2CCOC3CCOCC32)CC[C@H]1F` (mixture of isomers) [Example 620, 2-(2-((3R,4R)-3-amino-4-fluoropiperidin-1-yl)-5,6-difluoro-1H-benzo[d]imidazol-1-yl)-1-(hexahydropyrano[4,3-b][1,4]oxazin-4(7H)-yl)ethanone] the value was 60.4 nM; for `N#CCOc1ccc(Cn2c(N3CCC[C@@H](N)C3)nc3ccccc32)cc1` [Example 384, (R)-2-(4-((2-(3-aminopiperidin-1-yl)-1H-benzo[d]imidazol-1-yl)methyl)phenoxy) acetonitrile], 16000 nM. For the molecule `N#Cc1ccc(Cn2c(N3CCC[C@H](N)C3)nc3c(Cl)cc(Cl)cc32)nc1` [Example 57, (S)-6-((2-(3-aminopiperidin-1-yl)-4,6-dichloro-1H-benzo[d]imidazol-1-yl)methyl)nicotinonitrile], the IC50 is 0.784 nM.

For `N#Cc1ccc(Cn2c(N3CC[C@H](O)[C@H](N)C3)nc3ccc(F)cc32)nc1` [Example 311, 6-((2-((3R,4S)-3-amino-4-hydroxypiperidin-1-yl)-6-fluoro-1H-benzo[d]imidazol-1-yl)methyl)nicotinonitrile], the IC50 came to 217 nM. With `CN(CC(F)(F)F)C(=O)Cn1c(N2CC[C@@H](F)[C@H](N)C2)nc2cc(F)cc(F)c21` [Example 591, 2-(2-((3R,4R)-3-amino-4-fluoropiperidin-1-yl)-5,7-difluoro-1H-benzo[d]imidazol-1-yl)-N-methyl-N-(2,2,2-trifluoroethyl)acetamide], the IC50 was determined as 1590 nM. For `N#Cc1ccc(Cn2c(N3CCC(F)(F)[C@H](N)C3)nc3ccc(C#N)cc32)nc1` [Example 55, (R)-2-(3-amino-4,4-difluoropiperidin-1-yl)-1-((5-cyanopyridin-2-yl)methyl)-1H-benzo[d]imidazole-6-carbonitrile], the IC50 was 3.97 nM.

For `C[C@H](c1ccc(C#N)cc1)n1c(N2CC[C@H](F)[C@H](N)C2)nc2ccccc21` [Example 317, 4-((R)-1-(2-((3R,4S)-3-amino-4-fluoropiperidin-1-yl)-1H-benzo[d]imidazol-1-yl)ethyl)benzonitrile hydrochloride], the IC50 is 1360 nM. For `CCC1CN(C(=O)Cn2c(N3CC[C@@H](F)[C@H](N)C3)nc3cc(F)c(F)cc32)CCO1` (stereo partly drawn) [Example 513, 2-(2-((3R,4R)-3-amino-4-fluoropiperidin-1-yl)-5,6-difluoro-1H-benzo[d]imidazol-1-yl)-1-(2-ethylmorpholino)ethan-1-one] the value was 183 nM. Turning to `N#Cc1ccc(Cn2c(N3CCC[C@H](N)C3)nc3cc(Cl)ccc32)cc1` [Example 422, (S)-4-((2-(3-aminopiperidin-1-yl)-5-chloro-1H-benzo[d]imidazol-1-yl)methyl)benzonitrile], the IC50 is 2.35 nM. For the molecule `CC(C)(C)OC1CN(C(=O)Cn2c(N3CC[C@@H](F)[C@H](N)C3)nc3cc(F)c(F)cc32)C1` [Example 427, 2-(2-((3R,4R)-3-amino-4-fluoropiperidin-1-yl)-5,6-difluoro-1H-benzo[d]imidazol-1-yl)-1-(3-(tert-butoxy)azetidin-1-yl)ethan-1-one], the IC50 is more than 1750 nM. For `COc1ccc2nc(N3CCC[C@H](N)C3)n(Cc3ccc(C#N)cn3)c2c1` [Example 142, (S)-6-((2-(3-aminopiperidin-1-yl)-6-methoxy-1H-benzo[d]imidazol-1-yl)methyl)nicotinonitrile 2,2,2-trifluoroacetate] the value was 13.8 nM.

Values taken from patent US11332459B2 (TEIJIN PHARMA LIMITED, priority 2017, dated 2022).
